# Like-named read-outs stand apart in the source and are kept apart here.
# Assays:
# [1] = Evaluation of in vivo pharmacokinetics (blood and brain concentrations, LC-MS/MS); details: male, rat, SD rats, brain
# Protocol: Pharmacological test example 4: Evaluation of in vivo pharmacokinetics
# To SD rats (male, 7 weeks old), the test compound was orally administered (p. o.) at an amount of 50 mg/kg bw or intravenously administered (i.v.) at an amount of 1 mg/kg bw and the concentrations in the blood and brain were measured up to 3 hours. The administration vehicle was an 80% PEG 400 aqueous solution. The blood was collected under isoflurane inhalational anesthesia and the brain was harvested after the rats were sacrificed. The plasma was separated from the blood. The brain was homogenized after addition of a three-fold volume of PBS and then methanol was added thereto. Thus the prepared test samples were subjected to measurement. The measurement was performed by LC-MS/MS (Applied Biosystems and Waters).
# The blood concentration changes of the compounds of Example 2 and Example 2 (2) ((1E,6E)-1-(1H-indol-6-yl)-7-[2-methoxy-4-(2-pyridylmethoxy)phenyl]hepta-1,6-diene-3,5-dione) after oral administration (p.o.) thereof are shown in FIG. 2. The brain concentration changes of the compounds after intravenous administration (i.v.) and oral administration (p.o.) thereof are shown in Table 2.
# Aβ 1-42 = molecular target: T1, Aβ 1-42 (Homo sapiens, UniProt P05067); assay: Determination of Aβ aggregation inhibitory activity (thioflavin T fluorescence); assay type: biochemical; details: for IC50: Aβ 1-42, 37° C. for 24 hours, thioflavin T, read-out: IC50 (μM) Test example 3 (Aβ aggregation inhibitory activity)
# T1 construct: Aβ 1-42 (Peptide Institute, Inc.) was dissolved in 0.3% ammonia water; purchased Peptide Institute, Inc
# Protocol: Pharmacological test example 3: Determination of Aβ aggregation inhibitory activity
# Aβ 1-42 (Peptide Institute, Inc.) was dissolved in 0.3% ammonia water so that the concentration would be 0.5 mM and then diluted with PBS to 20 μM. The test compounds were prepared using DMSO at 100-fold of their final concentrations and adjusted so that the DMSO concentration would be 2%. The Aβ solution and each of the test compound solutions were mixed at an equivalent ratio and the mixtures were incubated at 37° C. for 24 hours. To each of the mixtures, an equal volume of a thioflavin T solution adjusted with a 100 mM Tris-glycine buffer (pH 8.5) to 6 μM was added. The fluorescence intensity was measured with a fluorescence plate reader (excitation wavelength: 440 nm; emission wavelength: 480 nm).
# (§1) The final concentration of each compound at the time of measurement was set at 0.1, 0.3, 1, 3, and 10 μM. The sample to which only DMSO was added was used as a negative control and its fluorescence intensity was taken as 0% inhibitory activity.
# [2] = molecular target: recombinant three-repeat microtubule-binding domain (3R-MBD) of tau protein (Homo sapiens, UniProt P10636); assay: Determination of tau aggregation inhibitory activity (heparin-induced, thioflavin T fluorescence; electron microscope); assay type: biochemical; details: for IC50: 3R-MBD tau 10 μM, heparin 10 μM, 37° C. for 16 hours, thioflavin T, read-out: IC50 (μM) Test example 1 (tau aggregation inhibitory activity); for tau aggregation inhibitory activity at 1 μM: compound at 1 μM
# Protocol: Pharmacological Test Example 1: Determination of Tau Aggregation Inhibitory Activity
# A recombinant three-repeat microtubule-binding domain (3R-MBD) of tau protein was expressed in E. coli and was purified and used for the experiment. The purified tau solution was diluted with a 50 mM Tris-HCl buffer (pH 7.6) to a final concentration of 10 μM. The test compounds were prepared using dimethylsulfoxide (DMSO) at 20-fold of their final concentrations and added to the plate so that the DMSO concentration would be 5%. Heparin was added to the plate so that the final concentration would be 10 μM and the plate was left to stand at 37° C. for 16 hours. Thioflavin T was added to the plate so that the concentration would be 10 μM and the fluorescence intensity was measured with a fluorescence plate reader (PerkinElmer, Inc.) (excitation wavelength: 440 nm; emission wavelength: 480 nm).
# as §1
# The samples were placed on a grid and washed with distilled water. A 1 mM phosphotungstic acid aqueous solution was added to the samples. The samples were washed, dried overnight, and observed.
# [3] = molecular target: T2, recombinant human β-secretase (Homo sapiens, UniProt P56817); assay: Determination of β-secretase inhibitory activity (BACE-1 FRET assay Kit); assay type: biochemical; details: for IC50: recombinant human β-secretase, fluorescent substrate peptide, 1 hour, read-out: IC50 (μM) Test example 2 (β-secretase inhibitory activity); for inhibition at 1 µM: compound at 1 μM
# T2 construct: purchased Invitrogen
# Protocol: Pharmacological Test Example 2: Determination of β-Secretase Inhibitory Activity
# The β-secretase inhibitory activity was measured with BACE-1 FRET assay Kit (Invitrogen). The test compounds were prepared using DMSO at 30-fold of their final concentrations and dissolved so that the DMSO concentration would be 10%. To each of the solutions, an equal volume of a recombinant human β-secretase (1 U/mL) dissolved in the assay buffer and an equal volume of fluorescent substrate peptide (2.5 nM) were added and the solutions were left to stand for 1 hour. The fluorescence intensity was measured with a fluorescence plate reader (excitation wavelength: 545 nm; emission wavelength: 590 nm).
# The final concentration of each compound at the time of measurement was set at 0.1, 0.3, 1, 3, and 10 μM, at 0.3, 1, 3, 10, and 30 μM, or at 1, 3, 10, 30, and 100 μM.
# T1 sequence (P05067 672-713): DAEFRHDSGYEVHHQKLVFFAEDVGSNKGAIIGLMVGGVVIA
# T2 sequence (P56817 46-501): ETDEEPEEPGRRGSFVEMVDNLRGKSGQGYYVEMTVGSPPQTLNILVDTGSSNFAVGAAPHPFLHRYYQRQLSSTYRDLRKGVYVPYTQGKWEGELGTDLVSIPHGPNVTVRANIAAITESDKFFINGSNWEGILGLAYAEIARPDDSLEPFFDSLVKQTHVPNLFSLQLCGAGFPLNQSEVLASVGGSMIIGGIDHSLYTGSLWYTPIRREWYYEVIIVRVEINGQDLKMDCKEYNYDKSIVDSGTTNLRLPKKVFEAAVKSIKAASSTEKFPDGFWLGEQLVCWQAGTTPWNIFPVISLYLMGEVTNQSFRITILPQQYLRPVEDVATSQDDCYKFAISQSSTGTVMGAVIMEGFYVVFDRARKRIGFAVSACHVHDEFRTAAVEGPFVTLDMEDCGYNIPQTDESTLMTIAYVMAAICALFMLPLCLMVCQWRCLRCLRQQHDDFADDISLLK
# Chain of recombinant three-repeat microtubule-binding domain (3R-MBD) of tau protein (P10636 186-279 isoform P10636-2 limits assumed): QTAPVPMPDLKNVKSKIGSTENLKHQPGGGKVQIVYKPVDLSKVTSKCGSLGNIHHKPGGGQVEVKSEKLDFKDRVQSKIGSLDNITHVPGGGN
"concentration at 5 min ([1]; intravenous 1 mg/kg bw, 5 min, read-out: brain concentration i.v. 5 min) [ng/mL]","concentration at 180 min ([1]; intravenous 1 mg/kg bw, read-out: brain concentration i.v. 180 min) [ng/mL]","concentration at 60 min ([1]; oral 50 mg/kg bw, 60 min, read-out: brain concentration p.o. 60 min) [ng/mL]","concentration at 180 min ([1]; oral 50 mg/kg bw, read-out: brain concentration p.o. 180 min) [ng/mL]",melting point [°C],IC50 (Aβ 1-42) [µM],IC50 [2] [µM],IC50 [3] [µM],tau aggregation inhibitory activity at 1 μM [2] [%],inhibition at 1 µM [3] [%],inhibition at 3 µM (Aβ 1-42; compound at 3 μM) [%],SMILES
5.15 ± 3.34,0.93 ± 0.67,0,18 ± 30.8,,,,,,,,"COc1cc(OCc2ccccn2)ccc1/C=C/C(=O)CC(=O)/C=C/c1ccc2cc[nH]c2c1 [Example 2 (2), (1E,6E)-1-(1H-indol-6-yl)-7-[2-methoxy-4-(2-pyridylmethoxy)phenyl]hepta-1,6-diene-3,5-dione]"
,,,,153 to 155,> 10,0.85,22.7,,,,"COc1cc(OCc2ccccn2)ccc1/C=C/c1cc(/C=C/c2ccc3c(c2)OCCO3)[nH]n1 [Example 83, 3-[(1E)-2-(1,4-benzodioxan-6-yl)ethenyl]-5-[(1E)-2-[2-methoxy-4-(2-pyridylmethoxy)phenyl]ethenyl]-1H-pyrazole]"
,,,,96 to 99,3.27,1.29,1.25,,,,"CCN(CC)c1ccc(/C=C/c2cc(/C=C/c3ccc4cc[nH]c4c3)[nH]n2)c(OCCN2CCOCC2)c1 [Example 98, 3-[(1E)-2-[4-diethylamino-2-(2-morpholinoethoxy)phenyl]ethenyl]-5-[(1E)-2-(1H-indol-6-yl)ethenyl]-1H-pyrazole]"
,,,,192 to 198,4.33,1.46,1.06,,,,"CN1CCN(c2ccc(/C=C/c3cc(/C=C/c4ccc5cc[nH]c5c4)[nH]n3)cc2)CC1 [Example 102, 5-[(1E)-2-(1H-indol-6-yl)ethenyl]-3-[(1E)-2-[4-(4-methylpiperazin-1-yl)phenyl]ethenyl]-1H-pyrazole]"
,,,,195 to 197,1.9,,,0,12,,"COc1cc(OCc2ccccn2)ccc1/C=C/c1cc(/C=C/c2ccc(OCc3ccccn3)cc2OC)[nH]n1 [Example 110, 3,5-bis[(1E)-2-[2-methoxy-4-(2-pyridylmethoxy)phenyl]ethenyl]-1H-pyrazole]"
,,,,123 to 126,5.05,1.46,2.89,,,,"COc1cc(OCc2ccccn2)ccc1/C=C/c1cc(/C=C/c2ccc(O)c(N)c2)[nH]n1 [Example 111, 3-[(1E)-2-[2-methoxy-4-(2-pyridylmethoxy)phenyl]ethenyl]-5-[(1E)-2-(3-amino-4-hydroxy-phenyl)ethenyl]-1H-pyrazole]"
,,,,289 to 291,2.8,,,24,30,17,"C(=C\c1cc(/C=C/c2ccc3cc[nH]c3c2)[nH]n1)/c1ccc2cc[nH]c2c1 [Example 112, 3,5-bis[(1E)-2-(1H-indol-6-yl)ethenyl]-1H-pyrazole]"
